Patent US20250126968A1, “Light-Emitting Device” (Semiconductor Energy Laboratory Co., Ltd., priority 2023, published 2025)

Assay: Solubility test of PrdP2Phen by LC-MS analysis
Type: physicochemical
Settings: 1 mg in 1 mL of water, ultrasonic waves 5 minutes, membrane-filtered, filtrate analysed by LC-MS; one atmosphere, room temperature
Method: Next, a solubility test of PrdP2Phen was performed. Note that the solubility test was conducted at a pressure of one atmosphere at room temperature (RT).
In the LC-MS analysis, liquid chromatography (LC) separation was carried out with ACQUITY UPLC (Waters Corporation), and MS analysis (mass spectrometry) was carried out with Xevo G2 Tof MS (Waters Corporation). Acquity UPLC BEH C8 (2.1×100 mm, 1.7 μm) was used as a column for the LC separation. Acetonitrile was used for Mobile Phase A and a 0.1% aqueous solution of formic acid was used for Mobile Phase B. The injection amount of the sample was 5.0 μL. Note that in the analysis, the wavelength of a photodiode array detector was set to 263 nm±1 nm.
In a 5-mL sample bottle, 1 mg of PrdP2Phen was put and 1 mL of water was added thereto. This mixture was irradiated with ultrasonic waves for 5 minutes. This mixture was filtered through a membrane filter to remove the solid, and the resulting filtrate was diluted by five times with acetonitrile. The obtained solution was subjected to LC-MS analysis.

- solubility in water: extremely low solubility in water
SMILES: c1cc(-c2ccc(N3CCCC3)cc2)c2ccc3c(-c4ccc(N5CCCC5)cc4)ccnc3c2n1 [PrdP2Phen, 4,7-bis[4-(1-pyrrolidinyl)phenyl]-1,10-phenanthroline]
